Assay results as given in ChEMBL document CHEMBL1201862, “PubChem BioAssay data set” (2004).
The source made the active and inactive calls.

Key:
[1] = Luminescence Cell-Based Dose Response to Identify Activators of Luciferase Translation or Activity in H4-C Neuroglioblastoma Cells. [Related pubchem assays: 1829 (Project Summary), 1814 (Primary HTS)]; format: functional
[2] = Luminescence Cell-Based Dose Response to Identify Activators of 5'UTR Stem-Loop Driven Prion Protein mRNA Translation in H4-C Neuroglioblastoma Cells. [Related pubchem assays: 1829 (Project Summary), 1814 (Primary HTS)]; format: functional
[3] = Luminescence Cell-Based Dose Response HTS to Identify Activators of Luciferase Translation or Activity in H4 […] Cells. [Related pubchem assays: 1829 (Project Summary), 1814 (Primary HTS)]; format: functional
[4] = molecular target: T1, Oxysterols receptor LXR-beta (Homo sapiens, UniProt P55055); format: functional, cell-based;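 note: agonist activity at LXR measured by a cell-based luminescence readout across a dose range, run as a counterscreen for daf-12 agonists; HEK293 cells with Gal4-LXR fusion and GAL4-driven luciferase reporter; potency for activation of Gal4-LXR reporter so compounds are agonists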
T1 sequence (P55055 whole entry): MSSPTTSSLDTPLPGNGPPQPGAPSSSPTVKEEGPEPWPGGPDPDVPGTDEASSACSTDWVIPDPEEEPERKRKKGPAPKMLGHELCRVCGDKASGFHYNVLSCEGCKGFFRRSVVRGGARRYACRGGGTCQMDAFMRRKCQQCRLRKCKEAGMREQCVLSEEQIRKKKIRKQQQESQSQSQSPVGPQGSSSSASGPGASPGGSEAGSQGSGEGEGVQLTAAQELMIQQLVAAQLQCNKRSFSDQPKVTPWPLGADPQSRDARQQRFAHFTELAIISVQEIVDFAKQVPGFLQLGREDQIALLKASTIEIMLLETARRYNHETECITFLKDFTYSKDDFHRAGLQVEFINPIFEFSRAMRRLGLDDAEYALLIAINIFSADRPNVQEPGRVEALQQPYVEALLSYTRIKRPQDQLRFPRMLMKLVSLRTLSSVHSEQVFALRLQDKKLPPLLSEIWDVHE

[5] = Luminescence Cell-Based Dose Confirmation to Identify Activators of 5'UTR Stem-Loop Driven Alpha-Synuclein mRNA Translation in H4 Neuroglioblastoma Cells. [Related pubchem assays: 1829 (Project Summary), 1814 (Primary HTS)]; format: functional
H4 = assay: Luminescence Cell-Based Dose Response HTS to Identify Activators of 5'UTR Stem-Loop Driven Prion Protein mRNA Translation in H4 Neuroglioblastoma Cells. [Related pubchem assays: 1829 (Project Summary), 1814 (Primary HTS)]; format: functional; settings: Homo sapiens
[6] = HEp-2 cell cytotoxicity, dose response, cytotoxicity control for RSV inhibitor project, HTS (AID 2410); format: functional; settings: human respiratory syncytial virus
Vero [7] = assay: cells; format: functional; settings: Chlorocebus sabaeus
Vero [8] = assay: cells; format: functional, cell-based; settings: Chlorocebus sabaeus
Vero [9] = assay: West Nile virus antiviral activity, cell-based, CPE readout (AID 1621); format: functional; settings: Chlorocebus sabaeus
[10] = molecular target: T2, Voltage-gated inwardly rectifying potassium channel KCNH2 (Homo sapiens, UniProt Q12809); assay: hERG protection from proarrhythmic block, potency, dose response, cell-based, thallium flux (AID 2121); format: ADME
T2 sequence (Q12809 whole entry): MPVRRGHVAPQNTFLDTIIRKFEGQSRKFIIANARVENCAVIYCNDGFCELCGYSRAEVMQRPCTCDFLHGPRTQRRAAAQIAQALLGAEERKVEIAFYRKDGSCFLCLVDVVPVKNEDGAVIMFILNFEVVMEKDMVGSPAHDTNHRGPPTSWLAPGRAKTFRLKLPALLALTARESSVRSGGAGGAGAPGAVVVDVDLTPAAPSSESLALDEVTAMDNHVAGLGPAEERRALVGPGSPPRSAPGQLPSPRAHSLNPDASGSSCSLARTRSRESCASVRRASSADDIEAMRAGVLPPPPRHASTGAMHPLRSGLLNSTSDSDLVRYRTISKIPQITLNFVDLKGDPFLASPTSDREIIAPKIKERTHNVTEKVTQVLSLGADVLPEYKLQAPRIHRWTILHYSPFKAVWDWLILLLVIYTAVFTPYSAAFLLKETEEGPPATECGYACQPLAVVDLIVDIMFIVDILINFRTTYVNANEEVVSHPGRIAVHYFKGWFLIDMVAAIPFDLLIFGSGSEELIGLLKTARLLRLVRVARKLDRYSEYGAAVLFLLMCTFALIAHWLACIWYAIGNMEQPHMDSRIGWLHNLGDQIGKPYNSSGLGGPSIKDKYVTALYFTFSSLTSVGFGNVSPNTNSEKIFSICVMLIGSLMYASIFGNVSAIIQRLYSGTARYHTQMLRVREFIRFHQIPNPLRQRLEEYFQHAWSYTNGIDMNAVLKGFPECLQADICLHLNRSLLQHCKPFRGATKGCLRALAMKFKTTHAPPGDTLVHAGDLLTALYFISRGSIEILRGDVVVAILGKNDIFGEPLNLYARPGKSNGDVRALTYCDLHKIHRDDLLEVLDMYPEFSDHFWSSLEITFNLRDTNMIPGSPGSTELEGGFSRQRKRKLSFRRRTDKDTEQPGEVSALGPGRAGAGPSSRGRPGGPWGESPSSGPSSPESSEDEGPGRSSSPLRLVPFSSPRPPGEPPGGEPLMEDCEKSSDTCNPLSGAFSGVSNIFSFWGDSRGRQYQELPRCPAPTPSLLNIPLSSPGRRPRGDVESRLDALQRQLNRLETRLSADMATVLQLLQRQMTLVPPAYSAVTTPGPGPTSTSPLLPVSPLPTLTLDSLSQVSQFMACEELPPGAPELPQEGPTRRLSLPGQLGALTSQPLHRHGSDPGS

[11] = molecular target: Potassium voltage-gated channel subfamily KQT member 2 (Rattus norvegicus, UniProt O88943, W236L); assay: KCNQ2 channel potentiators, dose response, mechanism study for KCNQ2 potentiator project, cell-based, automated electrophysiology (AID 2603); format: functional
Sequence of Potassium voltage-gated channel subfamily KQT member 2 (O88943 whole entry W236L): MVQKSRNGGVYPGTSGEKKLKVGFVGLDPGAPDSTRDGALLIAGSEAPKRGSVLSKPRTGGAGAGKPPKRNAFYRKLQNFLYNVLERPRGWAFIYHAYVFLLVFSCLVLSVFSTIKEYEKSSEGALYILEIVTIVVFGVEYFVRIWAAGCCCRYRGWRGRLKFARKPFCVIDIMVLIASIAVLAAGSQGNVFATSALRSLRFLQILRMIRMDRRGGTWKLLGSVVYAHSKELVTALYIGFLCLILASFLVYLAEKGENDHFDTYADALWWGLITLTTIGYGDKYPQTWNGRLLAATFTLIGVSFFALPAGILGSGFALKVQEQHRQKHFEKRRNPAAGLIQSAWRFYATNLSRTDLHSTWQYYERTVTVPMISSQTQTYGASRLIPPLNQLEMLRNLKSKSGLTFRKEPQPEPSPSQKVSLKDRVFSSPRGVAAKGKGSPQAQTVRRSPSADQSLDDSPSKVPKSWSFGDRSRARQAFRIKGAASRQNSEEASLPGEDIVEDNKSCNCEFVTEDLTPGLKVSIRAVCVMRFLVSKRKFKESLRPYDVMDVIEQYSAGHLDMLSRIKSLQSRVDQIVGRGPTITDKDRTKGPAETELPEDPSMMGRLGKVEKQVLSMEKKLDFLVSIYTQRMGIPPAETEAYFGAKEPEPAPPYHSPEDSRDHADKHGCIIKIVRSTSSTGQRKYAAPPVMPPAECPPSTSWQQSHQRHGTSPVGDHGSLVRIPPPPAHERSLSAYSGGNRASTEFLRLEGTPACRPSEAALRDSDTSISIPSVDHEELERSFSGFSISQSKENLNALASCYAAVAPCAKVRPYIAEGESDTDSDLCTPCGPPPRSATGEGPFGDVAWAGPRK

[12] = molecular target: T3, Heat shock factor protein 1 (Mus musculus, UniProt P38532); assay: inhibition of MG132-induced HSE-luciferase signal, confirmation, cell-based, NIH3T3, luminescence, dose retest (AID 2382); format: functional;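 note: NIH3T3 fibroblasts with HSF1-driven luciferase reporter stressed by proteasome inhibitor MG132; luminescence from HSF1-driven luciferase expression after 8 hours of MG132 stress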
T3 sequence (P38532 whole entry): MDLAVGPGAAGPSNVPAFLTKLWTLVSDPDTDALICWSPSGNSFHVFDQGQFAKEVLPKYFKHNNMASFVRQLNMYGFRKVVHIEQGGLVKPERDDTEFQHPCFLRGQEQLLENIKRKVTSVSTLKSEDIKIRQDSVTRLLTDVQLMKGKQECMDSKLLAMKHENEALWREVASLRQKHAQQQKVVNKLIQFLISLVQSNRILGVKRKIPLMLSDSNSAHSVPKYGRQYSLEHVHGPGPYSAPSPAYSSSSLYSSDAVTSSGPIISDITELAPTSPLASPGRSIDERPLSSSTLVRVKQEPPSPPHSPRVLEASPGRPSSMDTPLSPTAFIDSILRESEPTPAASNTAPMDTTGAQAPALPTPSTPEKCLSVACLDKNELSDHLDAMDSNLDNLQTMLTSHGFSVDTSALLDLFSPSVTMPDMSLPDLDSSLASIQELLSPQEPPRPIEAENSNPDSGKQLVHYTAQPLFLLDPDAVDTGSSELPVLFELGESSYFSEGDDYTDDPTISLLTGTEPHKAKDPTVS

Ephrin type-A receptor 4 = Ephrin type-A receptor 4 (Mus musculus, UniProt Q03137); assay: inhibitors of EphA4 binding to KYL peptide, primary screen, biochemical, colorimetric, mouse EphA4 (AID 689); format: functional
Sequence of Ephrin type-A receptor 4 (Q03137 whole entry): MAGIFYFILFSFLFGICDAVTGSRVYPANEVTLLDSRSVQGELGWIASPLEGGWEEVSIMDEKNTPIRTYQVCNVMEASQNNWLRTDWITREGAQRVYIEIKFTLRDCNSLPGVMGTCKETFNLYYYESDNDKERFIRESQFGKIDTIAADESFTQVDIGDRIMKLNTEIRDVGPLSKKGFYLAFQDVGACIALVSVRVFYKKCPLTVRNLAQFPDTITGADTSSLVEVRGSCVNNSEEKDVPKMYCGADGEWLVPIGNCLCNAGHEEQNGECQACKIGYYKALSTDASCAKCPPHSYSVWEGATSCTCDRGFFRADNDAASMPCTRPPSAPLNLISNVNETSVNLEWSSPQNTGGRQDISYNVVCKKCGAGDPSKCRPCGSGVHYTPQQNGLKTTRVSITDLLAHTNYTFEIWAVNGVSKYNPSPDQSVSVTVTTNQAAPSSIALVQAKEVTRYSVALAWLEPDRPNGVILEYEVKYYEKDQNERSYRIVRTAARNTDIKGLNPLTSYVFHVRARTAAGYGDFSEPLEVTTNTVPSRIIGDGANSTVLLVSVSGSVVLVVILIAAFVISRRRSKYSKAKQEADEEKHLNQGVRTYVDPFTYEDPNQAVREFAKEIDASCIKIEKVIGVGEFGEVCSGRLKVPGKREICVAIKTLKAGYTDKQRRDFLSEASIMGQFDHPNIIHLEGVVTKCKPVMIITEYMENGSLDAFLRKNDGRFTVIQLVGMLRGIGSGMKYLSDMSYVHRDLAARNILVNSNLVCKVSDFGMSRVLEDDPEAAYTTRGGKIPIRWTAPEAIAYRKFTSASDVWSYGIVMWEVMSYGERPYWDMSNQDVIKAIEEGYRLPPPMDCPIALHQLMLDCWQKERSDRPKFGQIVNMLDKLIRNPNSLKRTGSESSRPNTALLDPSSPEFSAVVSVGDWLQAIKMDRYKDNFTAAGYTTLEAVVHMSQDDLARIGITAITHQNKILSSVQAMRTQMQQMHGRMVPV

Large T antigen = Large T antigen (Simian virus 40, UniProt P03070); format: functional, Betapolyomavirus macacae;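 note: Confirmatory-stage PubChem screen for compounds that inhibit SV40 T antigen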
[13] = molecular target: T2, Voltage-gated inwardly rectifying potassium channel KCNH2; settings: Potency
[14] = Luminescent dose response cell-based high throughput screening assay for inhibitors of the Janus kinase 2 mutant JAK2V617F. [Related pubchem assays: 1446 (Primary screen.), 1521 (Confirmation assay.), 1486 (Counter screen.)]; format: functional
Mucolipin-3 [15] = molecular target: T4, Mucolipin-3 (Homo sapiens, UniProt Q8TDD5); assay: Dose response cell-based high-throughput screening assay for agonists of the transient receptor potential channel ML3 (TRPML3). [Related pubchem assays: 1526, 1424, 1448 ]; format: functional
T4 sequence (Q8TDD5 whole entry): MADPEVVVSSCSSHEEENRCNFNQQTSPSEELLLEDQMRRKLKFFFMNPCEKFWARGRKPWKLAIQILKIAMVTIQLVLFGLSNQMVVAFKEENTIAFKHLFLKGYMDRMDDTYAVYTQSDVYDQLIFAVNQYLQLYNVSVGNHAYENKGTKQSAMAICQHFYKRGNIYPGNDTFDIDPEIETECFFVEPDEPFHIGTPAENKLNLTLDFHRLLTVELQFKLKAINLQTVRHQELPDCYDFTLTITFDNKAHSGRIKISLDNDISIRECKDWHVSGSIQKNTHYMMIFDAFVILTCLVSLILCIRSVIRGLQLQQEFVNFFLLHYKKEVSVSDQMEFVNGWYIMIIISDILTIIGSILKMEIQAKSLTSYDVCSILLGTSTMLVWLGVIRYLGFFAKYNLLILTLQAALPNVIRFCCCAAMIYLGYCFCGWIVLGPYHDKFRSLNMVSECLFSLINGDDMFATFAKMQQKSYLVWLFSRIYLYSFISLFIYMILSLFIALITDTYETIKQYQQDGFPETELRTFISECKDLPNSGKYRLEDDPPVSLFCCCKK

Mucolipin-3 [16] = molecular target: T4, Mucolipin-3; assay: TRPML3 agonist potency, dose response, cell-based, calcium fluorescence (AID 2510); format: functional
Ion channel NompC [17] = molecular target: T5, Ion channel NompC (Danio rerio, UniProt Q7T1G6); assay: Late stage counterscreen for the probe development effort to identify selective agonists of the Transient Receptor Potential Channels 3 (TRPML3): fluorescence-based cell-based dose response assay for TRPN1 agonists.; format: functional
T5 sequence (Q7T1G6 whole entry): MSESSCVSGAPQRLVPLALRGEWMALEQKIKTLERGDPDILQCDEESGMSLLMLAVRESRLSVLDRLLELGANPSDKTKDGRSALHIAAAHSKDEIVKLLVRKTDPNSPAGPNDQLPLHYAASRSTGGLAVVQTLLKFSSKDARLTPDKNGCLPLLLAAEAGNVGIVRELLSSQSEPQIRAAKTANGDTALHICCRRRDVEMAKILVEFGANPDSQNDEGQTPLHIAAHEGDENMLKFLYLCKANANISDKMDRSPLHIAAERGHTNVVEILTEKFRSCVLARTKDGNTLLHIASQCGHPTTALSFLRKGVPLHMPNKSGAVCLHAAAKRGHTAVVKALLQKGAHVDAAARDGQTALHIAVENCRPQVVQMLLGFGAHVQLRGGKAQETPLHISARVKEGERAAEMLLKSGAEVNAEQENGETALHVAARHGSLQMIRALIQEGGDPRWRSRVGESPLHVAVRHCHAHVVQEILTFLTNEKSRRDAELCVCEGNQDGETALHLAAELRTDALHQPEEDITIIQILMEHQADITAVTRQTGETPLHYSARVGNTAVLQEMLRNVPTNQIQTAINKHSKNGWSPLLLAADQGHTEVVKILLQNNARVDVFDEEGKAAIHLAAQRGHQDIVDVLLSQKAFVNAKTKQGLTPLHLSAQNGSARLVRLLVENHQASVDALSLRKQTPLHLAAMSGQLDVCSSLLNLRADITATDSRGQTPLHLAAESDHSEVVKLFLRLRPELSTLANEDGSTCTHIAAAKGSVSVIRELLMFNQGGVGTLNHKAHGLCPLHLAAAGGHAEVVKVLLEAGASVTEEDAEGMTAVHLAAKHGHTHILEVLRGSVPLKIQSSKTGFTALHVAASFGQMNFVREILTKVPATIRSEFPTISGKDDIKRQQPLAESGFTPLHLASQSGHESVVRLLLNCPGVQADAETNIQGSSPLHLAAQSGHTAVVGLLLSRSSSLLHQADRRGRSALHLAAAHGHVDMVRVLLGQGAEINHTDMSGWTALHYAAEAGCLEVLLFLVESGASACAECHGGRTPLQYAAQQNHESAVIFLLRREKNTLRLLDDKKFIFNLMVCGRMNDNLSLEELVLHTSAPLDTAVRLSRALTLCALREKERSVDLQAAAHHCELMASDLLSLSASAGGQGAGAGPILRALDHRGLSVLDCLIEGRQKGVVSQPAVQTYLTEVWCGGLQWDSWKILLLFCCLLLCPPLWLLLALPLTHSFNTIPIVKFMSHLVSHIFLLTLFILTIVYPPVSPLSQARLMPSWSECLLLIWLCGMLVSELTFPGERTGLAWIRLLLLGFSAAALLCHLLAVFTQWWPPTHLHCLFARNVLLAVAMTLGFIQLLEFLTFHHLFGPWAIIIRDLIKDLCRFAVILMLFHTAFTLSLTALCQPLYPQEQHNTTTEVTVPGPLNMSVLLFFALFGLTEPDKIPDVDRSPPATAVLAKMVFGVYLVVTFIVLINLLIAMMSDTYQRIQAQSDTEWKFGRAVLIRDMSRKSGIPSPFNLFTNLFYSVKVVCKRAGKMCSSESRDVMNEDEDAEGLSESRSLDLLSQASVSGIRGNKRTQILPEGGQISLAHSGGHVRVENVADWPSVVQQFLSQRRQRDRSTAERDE

Ion channel NompC [18] = molecular target: T5, Ion channel NompC; assay: Fluorescence counterscreen assay for TRPML3 agonists: dose response cell-based high-throughput screening assay to identify agonists of the transient receptor potential channel N1 (TRPN1). [Related pubchem assays: 1526, 1424, 1448 ]; format: functional
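Throughout, for AC50: confirmatory quantitative high-throughput screen measuring inhibition of hERG channel activity.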

Q: Which EC50 [1] does the source give for `CCOC(=O)c1c[nH]nc1N=C(S)Nc1ccccc1` here?
A: 0.324 µM (active)

Q: What about the EC50 [2] of the same molecule?
A: 0.352 µM (active)

Q: What about the EC50 [3] of the same molecule?
A: < 0.1 µM (active)

Q: And the EC50 [4]?
A: > 67.6 µM (inactive)

Q: And the EC50 [5]?
A: 0.38 µM (active)

Q: What about the EC50 (H4) of the same molecule?
A: > 120 µM (not active)

Q: Which IC50 (cells) does the source give for `Cc1c(NC(=O)COC(=O)c2cc(-c3ccc(-c4ccccc4)cc3)nc3ccccc23)c(=O)n(-c2ccccc2)n1C` here?
A: 0.53 µM (active)

Q: What about the CC50 [6] of the same molecule?
A: 2.93 µM (active)

Q: And the CC50 (Vero [7])?
A: 11.5 µM (active)

Q: What about the IC50 (Vero [8]) of the same molecule?
A: 2.09 µM (active)

Q: And the IC50 (Vero [9])?
A: 21.1 µM (active)

Q: With `O=C(/C=C/c1ccccc1)CC(=O)c1ccccc1O` as the molecule, how does the EC50 [10] read?
A: 2.67 µM (active)

Q: For `Clc1ccc(Nc2ccc(Cl)nn2)cc1`, which EC50 [11] is on record?
A: 7.86 µM (active)

Q: What about the EC50 [12] of the same molecule?
A: > 195 µM (not active)

Q: For `COC(=O)CSc1nc(-c2ccccc2)cc(-c2ccco2)c1C#N`, which IC50 (Ephrin type-A receptor 4) is on record?
A: > 100 µM (not active)

Q: For `N#C/C(=C\c1ccc(O)c(O)c1)C(=O)NCCCc1ccccc1`, which IC50 (Large T antigen) is on record?
A: 21 µM (active)

Q: What about the AC50 [13] of the same molecule?
A: 15.8 µM (inconclusive)

Q: And the IC50 [14]?
A: 1.7 µM (active)

Q: Which EC50 (Mucolipin-3 [15]) does the source give for `Cc1ccc(S(=O)(=O)n2nccc2-c2c(-c3ccc(Cl)cc3)noc2C)cc1` here?
A: 0.325 µM (active)

Q: What about the EC50 (Mucolipin-3 [16]) of the same molecule?
A: 0.253 µM (active)

Q: And the EC50 (Ion channel NompC [17])?
A: > 29.9 µM (not active)

Q: What about the EC50 (Ion channel NompC [18]) of the same molecule?
A: > 29.9 µM (not active)
